Measured values from patent US10111890B2, “9-aminomethyl minocycline compounds and uses thereof” (Paratek Pharmaceuticals, Inc., priority 2016, dated 2018).

Tests used:
ABSSSI = experiment: Earlier Phase 3 i.v.-to-oral omadacycline vs linezolid study in ABSSSI: clinical success; assay type: in vivo, human; conditions: i.v. with switch to oral
[1] = tested on: ABSSSI known or suspected to be due to Gram-positive pathogens; experiment: Phase 3 oral omadacycline vs oral linezolid in ABSSSI: Investigator's Assessment of Clinical Response at PTE; assay type: in vivo, human; conditions: for Overall Clinical Success at PTE, %: micro-mITT, % of N1; for Difference (95% CI) in Overall Clinical Success rate at PTE: omadacycline minus linezolid
[2] = Cellulitis/erysipelas, actual type, mITT
[3] = Cellulitis/erysipelas, as randomized, mITT
[4] = Major Abscess, actual type, mITT
[5] = Major Abscess, as randomized, mITT
[6] = Wound Infection, actual type, mITT
[7] = Wound Infection, as randomized, mITT

## CN(C)c1cc(CNCC(C)(C)C)c(O)c2c1C[C@H]1C[C@H]3[C@H](N(C)C)C(O)=C(C(N)=O)C(=O)[C@@]3(O)C(O)=C1C2=O [Omadacycline, 9-[(2,2-dimethyl-propylamino)-methyl]-minocycline]
ABSSSI; 7-14 days after the last dose
  clinical success based on investigator's assessment of clinical response: 86.1%
ABSSSI; 48-72 hours after the first dose, FDA primary analysis population (N=627)
  clinical success based on a reduction of lesion size: 84.8%
ABSSSI; 7-14 days
  non-inferiority to linezolid: non-inferior
[1]; CE-PTE
  Difference in Overall Clinical Success rate at PTE, omadacycline minus linezolid: 2.3%
[1]; Cellulitis/erysipelas, actual type of infection, investigator assessment, mITT
  Overall clinical response at PTE: Clinical Success: 76 (88.4) n (%)
[1]; [2]
  Overall clinical response at PTE: Clinical Failure: 2 (2.3) n (%)
  Overall clinical response at PTE: Clinical Failure or Indeterminate: 10 (11.6) n (%)
  Overall clinical response at PTE: Indeterminate: 8 (9.3) n (%)
  Difference (95% CI) in Overall Clinical Success rate at PTE: −4.5 (−14.0, 4.7)
[1]; [3]
  Overall clinical response at PTE: Clinical Failure: 2 (2.4) n (%)
  Overall clinical response at PTE: Clinical Failure or Indeterminate: 10 (12.2) n (%)
  Overall clinical response at PTE: Indeterminate: 8 (9.8) n (%)
  Difference (95% CI) in Overall Clinical Success rate at PTE: −5.1 (−14.9, 4.3)
[1]; Cellulitis/erysipelas, type of infection as randomized, investigator assessment, mITT
  Overall clinical response at PTE: Clinical Success: 72 (87.8) n (%)
[1]; Major Abscess, actual type of infection, investigator assessment, mITT
  Overall clinical response at PTE: Clinical Success: 54 (84.4) n (%)
[1]; [4]
  Overall clinical response at PTE: Clinical Failure: 2 (3.1) n (%)
  Overall clinical response at PTE: Clinical Failure or Indeterminate: 10 (15.6) n (%)
  Overall clinical response at PTE: Indeterminate: 8 (12.5) n (%)
  Difference (95% CI) in Overall Clinical Success rate at PTE: 5.3 (−8.4, 19.2)
[1]; [5]
  Overall clinical response at PTE: Clinical Failure: 2 (3.1) n (%)
  Overall clinical response at PTE: Clinical Failure or Indeterminate: 10 (15.6) n (%)
  Overall clinical response at PTE: Indeterminate: 8 (12.5) n (%)
  Difference (95% CI) in Overall Clinical Success rate at PTE: 5.3 (−8.4, 19.2)
[1]; Major Abscess, type of infection as randomized, investigator assessment, mITT
  Overall clinical response at PTE: Clinical Success: 54 (84.4) n (%)
[1]; Wound Infection, actual type of infection, investigator assessment, mITT
  Overall clinical response at PTE: Clinical Success: 173 (82.4) n (%)
[1]; [6]
  Overall clinical response at PTE: Clinical Failure: 8 (3.8) n (%)
  Overall clinical response at PTE: Clinical Failure or Indeterminate: 37 (17.6) n (%)
  Overall clinical response at PTE: Indeterminate: 29 (13.8) n (%)
[1]; [7]
  Overall clinical response at PTE: Clinical Failure: 8 (3.7) n (%)
  Overall clinical response at PTE: Clinical Failure or Indeterminate: 37 (17.3) n (%)
  Overall clinical response at PTE: Indeterminate: 29 (13.6) n (%)
[1]; Wound Infection, type of infection as randomized, investigator assessment, mITT
  Overall clinical response at PTE: Clinical Success: 177 (82.7) n (%)
[1]; baseline pathogen Clostridium perfringens, investigator assessment
  Overall Clinical Success at PTE, %: (80.0) %
[1]; baseline pathogen Enterobacter cloacae, investigator assessment
  Overall Clinical Success at PTE, %: (80.0) %
[1]; baseline pathogen Enterococcus faecalis VSE, investigator assessment
  Overall Clinical Success at PTE, %: (100.0) %
[1]; baseline pathogen Enterococcus faecalis, investigator assessment
  Overall Clinical Success at PTE, %: (100.0) %
[1]; baseline pathogen Enterococcus faecium VSE, investigator assessment
  Overall Clinical Success at PTE, %: (100.0) %
[1]; baseline pathogen Enterococcus faecium, investigator assessment
  Overall Clinical Success at PTE, %: (100.0) %
[1]; baseline pathogen Escherichia coli, investigator assessment
  Overall Clinical Success at PTE, %: (100.0) %
[1]; baseline pathogen Finegoldia magna, investigator assessment
  Overall Clinical Success at PTE, %: (100.0) %
[1]; baseline pathogen Klebsiella pneumoniae, investigator assessment
  Overall Clinical Success at PTE, %: (80.0) %
[1]; baseline pathogen MRSA, investigator assessment
  Overall Clinical Success at PTE, %: (85.6) %
[1]; baseline pathogen MSSA, investigator assessment
  Overall Clinical Success at PTE, %: (80.8) %
[1]; baseline pathogen Prevotella denticola, investigator assessment
  Overall Clinical Success at PTE, %: (60.0) %
[1]; baseline pathogen Prevotella melaninogenica, investigator assessment
  Overall Clinical Success at PTE, %: (100.0) %
[1]; baseline pathogen Staphylococcus aureus, investigator assessment
  Overall Clinical Success at PTE, %: (82.7) %
[1]; baseline pathogen Staphylococcus lugdunensis, investigator assessment
  Overall Clinical Success at PTE, %: (80.0) %
[1]; baseline pathogen Streptococcus agalactiae, investigator assessment
  Overall Clinical Success at PTE, %: (50.0) %
[1]; baseline pathogen Streptococcus anginosus group, investigator assessment
  Overall Clinical Success at PTE, %: (86.0) %
[1]; baseline pathogen Streptococcus anginosus, investigator assessment
  Overall Clinical Success at PTE, %: (88.9) %
[1]; baseline pathogen Streptococcus constellatus, investigator assessment
  Overall Clinical Success at PTE, %: (88.9) %
[1]; baseline pathogen Streptococcus intermedius, investigator assessment
  Overall Clinical Success at PTE, %: (78.3) %
[1]; baseline pathogen Streptococcus mitis, investigator assessment
  Overall Clinical Success at PTE, %: (100.0) %
[1]; baseline pathogen Streptococcus pyogenes, investigator assessment
  Overall Clinical Success at PTE, %: (69.0) %
[1]; baseline pathogen Streptococcus viridans group, investigator assessment
  Overall Clinical Success at PTE, %: (100.0) %
[1]; investigator assessment, CE-PTE
  Overall clinical response at PTE: Clinical Failure: 6 (2.1) n (%)
[1]; investigator assessment, CE-PTE (N = 284 / N = 292)
  Overall clinical response at PTE: Clinical Success: 278 (97.9) n (%)
[1]; investigator assessment, mITT
  Overall clinical response at PTE: Clinical Failure: 12 (3.3) n (%)
  Overall clinical response at PTE: Clinical Failure or Indeterminate: 57 (15.8) n (%)
  Overall clinical response at PTE: Indeterminate: 45 (12.5) n (%)
[1]; investigator assessment, mITT (N = 360 per arm)
  Overall clinical response at PTE: Clinical Success: 303 (84.2) n (%)
[1]; mITT
  Difference in Overall Clinical Success rate at PTE, omadacycline minus linezolid: 3.3%
